Data on nine compounds can be found in patent publication US5545547A, “Enzymes as agricultural chemical adjuvants” (priority 1992, dated 1996).

The subject of data set [1] is soybean leaf discs. Description: Uptake of radiolabeled agricultural chemicals into leaf discs. Type of data set: in vitro ADME. How it is done: Leaf discs (1 cm diameter) were prepared from 9-13 day old soybean plants, and planed them on a nitrocellulose paper that was presoaked with 100 ug/ml stocptomycin in a petri dish. Radioactive chemicals were dissolved in 100 mM sodium phosphate buffer containing 0.05% TRITON X-100 surfactant [drawing 1] where n is an integer from 9 to 10 In addition to TRITON surfactant, (^14 C) uracil solution contained 0.4% ethanol, (^14 C) atrazine contained 10% ethanol (^14 C) indole acetic acid contained 2% ethanol and (^14 C) urea contained 0.2% ethanol. 5 ul of the radioactive chemical solution (9/uci/ml) was applied on the leaf disc and incubated for 5-7 hr at room temperature. After the incubation, leaf discs were rinsed 3 times with 0.025% TRITON X-100 surfactant solution and transferred into separate scintillation vials. Radioactivity taken up by each leaf disc was determined by a scintillation counter after adding 10 ml of Ecolite scintillation fluid into each vial. Ten leaf discs were used for each data point in all experiments. All radioactive chemicals were obtained from Amersham (U.S.A.). The specific activities of the chemicals were as follows:
Cutinase enzyme same as before.
Macerating enzyme, GC219, is an enzyme mixture sold by Genencor which comprises of cellulase, pectinase and hemicellulase.

Data set [2] concerns Trichoderma reesei QM6A. Description: Fungicide uptake in soybean plants, leaf extract rated for inhibition of fungal growth. Details: key: -no inhibition; +weak inhibition; ++=good inhibition; +++=strong inhibition. The procedure: The difoliate leaflets of 9-13 day old soybeam plants were treated with solutions of cutinase (100 ug/ml), BENOMYL fungicide [1-(butylcarbamoyl)-2-benzimidazolecarbamic acid methyl ester] (1 mg/ml), and GC219 (12.6 mg/ml) alone and BENOMYL fungicide [1-(butylcarbamoyl)-2-benzimidazolecarbamic acid methyl ester] plus enzymes. The solutions were dissolved in 100 mM sodium phosphate, pH 7 containing 0.5% TRITON surfactant [drawing 2] where n is an integer from 9 to 10 X-100. In addition to TRITON X-100 surfactant, [drawing 3] where n is an integer from 9 to 10 the BENOMYL fungicide [1-(butylcarbamoyl)-2-benzimidazolecarbamic acid methyl ester] contained 5% Dimethyl formamide. For each experiment 100 ul of solution was applied in 5 ul droplets to each difoliate leaflet. Duplicate plants were treated in this manner. The treated plants were incubated for two hours under normal greenhouse conditions. Identical solutions as those applied to the plants were also incubated for two hours to assure chemical stability under greenhouse conditions. After the incubation, the treated leaves were cut at the petiole and rinsed with a 0.05% TRITON X-100 surfactant [drawing 4] where n is an integer from 9 to 10 solution. Both difoliates were then ground with a mortar and pestle with 1.5 ml of a 100 mM sodium phosphate, pH 7 buffer. The extract was centrifuged and the supernatant was sterile filtered through a 0.45 um disc. The supernatant was then added to CMA media containing 2% agar to yield a final volume of 10 mls. 5 mls was them poured into a single well in a 6 well culture plate. Serial dilutions were made for each solution to achieve 1:1, 1:2 and 1:4 dilution of the plant extract in the agar.
Once the agar was solidified each well was innoculated with spores of Trichoderma reesei QM6A strain. The plates were incubated at 30° C. for 24 hours and the growth of T. reesei was rated.

Data set [3] relates to Pseudomonas mendocina ATCC 53552 lipase, crude preparation of Example 1(C) (includes Lipase 1 and Lipase 2). Briefly: Binding of p-nitrophenyl substrates and turnover kinetics, crude lipase preparation. The following applies: 0.1M Tris, 0.1 wt. Triton X-100, pH 8.0, 25° C. It counts as biochemical. An excerpt:
The recovered filtrate from the Amicon unit was concentrated to a volume of 3 liters on an Amicon ultrafiltration unit with two Romicon Pm 10 modules. The concentrated material was then dialyzed with 20 liters of 0.01M phosphate buffer, pH 7.5, to remove salts and color. Recovery at this stage averaged about 80%. Total activity for this crude preparation was 8.68×10^6 units. A unit of lipase activity is defined as the amount of enzyme which results in an increase of absorbance at 415 nm of 1.0/minute when incubated at 25° C. with 2.0 mM p-nitrophenylbutyrate in 0.1M pH 8.0 Tris-HCl buffer containing 0.1 wt. adjuvant Triton X-100.
The binding of three p-nitrophenyl substrates and the turnover kinetics were studied for the crude preparation of Example 1(C), where reaction conditions were 0.1M Tris with 0.1 wt. adjuvant Triton X-100, pH 8.0, at 25° C. The substrates were p-nitrophenyl caprylate, p-nitrophenyl laurate, and p-nitrophenyl palmitate, and the data is set out in Table

In data set [4] the test system is Soybeans. Description: Greenhouse multispecies herbicide screen with/without P. mendocina enzyme. It counts as in vivo. The note with it: two weeks after treatment. An excerpt:
(§1) Several plant species including weeds and crops are used in these experiments.
(§2) A number of herbicides from various chemical classes were compared in a multispecies screen for percent chlorosis, necrosis and vigor reduction both with and without application of the enzyme from Pseudomonas mendocina ATCC 53552 described earlier. The herbicides were applied to various plants at the manufacturers recommended doses and at 10% and 40% of the recommended dose. Two different enzyme concentrations were used: 0.5 mg/ml (HE) and 0.05 mg/ml (LE) and applied at the rate of 40 gallons/acre. All spraying solutions were at pH 10 and contained 100 mm sodium phosphate each. Ratings were done at 6 and 12 days after the treatment. All the experiments were carried out in a greenhouse.
(§3) Chlorosis--figures represent percent of plants showing chlorosis.
(§4) Necrosis--figures represent percent of plants showing necrosis.
(§5) Vigor--figures represent percent of plants showing decreased vigor.
(§6) Phytotoxicity--figures represent the average percent of chlorosis, necrosis, and vigor for a given sample.
(§7) The method of Example 1 was used except that the enzyme was applied 2 hours prior to administering the agricultural chemical with the following results. Ratings were done two weeks after treatment

For data set [5], the system named is Turnip. The data set is described as above. The note with it: two weeks after treatment. It counts as in vivo.
Source text: as §1, §2, §3, §4, §5, §6, §7

`NC(N)=O` [Urea, urea]: the figures for the “Uptake, Radioactivity (cpm)” value in data set [1] (pH 7) and in data set [1] (pH 10) were 785 ± 141 cpm and 398 ± 43 cpm, respectively.
Consider `CCCCNC(=O)n1c(NC(=O)OC)nc2ccccc21` [BENOMYL fungicide, 1-(butylcarbamoyl)-2-benzimidazolecarbamic acid methyl ester], for which the “Inhibition of Fungal Growth” value in data set [2] (BENOMYL alone (1 mg/ml on leaves), 1:1 dilution of plant extract) was “-”; in data set [2] (BENOMYL alone, 1:2 dilution), “-”; in data set [2] (BENOMYL alone, 1:4 dilution), “-”; in data set [2] (Cutinase (100 ug/ml) and BENOMYL, 1:1 dilution), “+++”; in data set [2] (Cutinase and BENOMYL, 1:2 dilution), “++”; in data set [2] (Cutinase and BENOMYL, 1:4 dilution), “+”. Besides, the “Inhibition of Fungal Growth” value in data set [2] (GC219 (12.6 mg/ml) and BENOMYL, 1:1 dilution) is listed as “++”; in data set [2] (GC219 and BENOMYL, 1:2 dilution), “+”; in data set [2] (GC219 and BENOMYL, 1:4 dilution), “-”.
As to `CN(C)C(=O)Nc1ccc(Cl)c(Cl)c1` [Diuron, diuron], the “Uptake, Radioactivity (cpm)” value came to 5739 ± 1376 cpm in data set [1] (Herbicide table, Diuron, without any addition of protein); 8592 ± 803 cpm in data set [1] (Herbicide table, pH 10, Cutinase 200 ug/ml, Active Enzyme); 6878 ± 2126 cpm in data set [1] (Herbicide table, pH 10, Cutinase 200 ug/ml, Inactive Protein Control (A126)).
In the case of `O=C(O)Cc1c[nH]c2ccccc12` [Indole Acetic Acid], in data set [1], the “Background uptake, Radioactivity (cpm)” value is on record as 1292 cpm.
The term Km denotes the concentration of substrate that gives half-maximal velocity. `CCCCCCCCCCCC(=O)Oc1ccc([N+](=O)[O-])cc1` [PNPL, p-nitrophenyl laurate]: in data set [3], the Km amounted to 167 µM and the Vmax stood at 214 μmole/min/mg protein.
As for `CCNc1nc(Cl)nc(NC(C)C)n1` [ATRAZINE, Atrazine], the “CHL (chlorosis)” value in data set [4] (ATRAZINE 10% dose, High Enzyme) is listed as 55%; in data set [4] (ATRAZINE 10% dose, Low Enzyme) it was 38%; in data set [4] (ATRAZINE 10% dose, No Enzyme), 10%; in data set [4] (ATRAZINE 40% dose, High Enzyme) it was 80%; in data set [4] (ATRAZINE 40% dose, Low Enzyme) it was 100%; in data set [4] (ATRAZINE 40% dose, No Enzyme) it was 55%. Also, the “CHL (chlorosis)” value in data set [5] (ATRAZINE 10% dose, High Enzyme) was 25%; in data set [5] (ATRAZINE 10% dose, Low Enzyme), 50%; in data set [5] (ATRAZINE 10% dose, No Enzyme), 38%; in data set [5] (ATRAZINE 40% dose, High Enzyme), 75%; in data set [5] (ATRAZINE 40% dose, Low Enzyme), 90%; in data set [5] (ATRAZINE 40% dose, No Enzyme) it was 70%. Moreover, the “NEC (necrosis)” value in data set [4] (ATRAZINE 10% dose, High Enzyme) is recorded as 18%; in data set [4] (ATRAZINE 10% dose, Low Enzyme), 58%; in data set [4] (ATRAZINE 10% dose, No Enzyme), 33%; in data set [4] (ATRAZINE 40% dose, High Enzyme) it was 88%; in data set [4] (ATRAZINE 40% dose, Low Enzyme), 100%; in data set [4] (ATRAZINE 40% dose, No Enzyme) it was 63%. The “NEC (necrosis)” value in data set [5] (ATRAZINE 10% dose, High Enzyme) is on record as 25%; in data set [5] (ATRAZINE 10% dose, Low Enzyme), 38%; in data set [5] (ATRAZINE 10% dose, No Enzyme), 23%; in data set [5] (ATRAZINE 40% dose, High Enzyme) it was 88%; in data set [5] (ATRAZINE 40% dose, Low Enzyme), 90%; in data set [5] (ATRAZINE 40% dose, No Enzyme), 70%. Moreover, the “PHY (phytotoxicity)” value in data set [4] (ATRAZINE 10% dose, High Enzyme) is 12%; in data set [4] (ATRAZINE 10% dose, Low Enzyme), 48%; in data set [4] (ATRAZINE 10% dose, No Enzyme) it was 34%; in data set [4] (ATRAZINE 40% dose, High Enzyme), 85%; in data set [4] (ATRAZINE 40% dose, Low Enzyme), 100%; in data set [4] (ATRAZINE 40% dose, No Enzyme), 58%. Besides, the “PHY (phytotoxicity)” value in data set [5] (ATRAZINE 10% dose, High Enzyme) is 25%; in data set [5] (ATRAZINE 10% dose, Low Enzyme), 46%; in data set [5] (ATRAZINE 10% dose, No Enzyme), 37%; in data set [5] (ATRAZINE 40% dose, High Enzyme), 84%; in data set [5] (ATRAZINE 40% dose, Low Enzyme), 90%; in data set [5] (ATRAZINE 40% dose, No Enzyme), 74%. Also, the “VIG (vigor)” value was 13% in data set [4] (ATRAZINE 10% dose, High Enzyme); 48% in data set [4] (ATRAZINE 10% dose, Low Enzyme); 50% in data set [4] (ATRAZINE 10% dose, No Enzyme); 88% in data set [4] (ATRAZINE 40% dose, High Enzyme); 100% in data set [4] (ATRAZINE 40% dose, Low Enzyme); 55% in data set [4] (ATRAZINE 40% dose, No Enzyme). Besides, the “VIG (vigor)” value stood at 25% in data set [5] (ATRAZINE 10% dose, High Enzyme); 50% in data set [5] (ATRAZINE 10% dose, Low Enzyme); 50% in data set [5] (ATRAZINE 10% dose, No Enzyme); 88% in data set [5] (ATRAZINE 40% dose, High Enzyme); 90% in data set [5] (ATRAZINE 40% dose, Low Enzyme); 83% in data set [5] (ATRAZINE 40% dose, No Enzyme). For the same compound, the “Uptake, Radioactivity (cpm)” value in data set [1] (Herbicide table, atrazine, without any addition of protein) is reported as 24007 ± 3984 cpm; in data set [1] (Herbicide table, pH 7.0, Cutinase 100 ug/ml, Active Enzyme), 42684 ± 2333 cpm; in data set [1] (Herbicide table, pH 7.0, Cutinase 100 ug/ml, Inactive Protein Control (A126)) it was 24832 ± 2834 cpm; in data set [1] (Herbicide table, pH 7.0, Cutinase 200 ug/ml, Active Enzyme) it was 54133 ± 2874 cpm; in data set [1] (Herbicide table, pH 7.0, Cutinase 200 ug/ml, Inactive Protein Control (A126)) it was 31097 ± 2959 cpm.
For `O=c1cc[nH]c(=O)[nH]1` [Uracil, uracil], the “Uptake, Radioactivity (cpm)” value was determined as 2090 ± 549 cpm in data set [1] (pH 7) and 507 ± 162 cpm in data set [1] (pH 10).
On to `CCCCCCCC(=O)Oc1ccc([N+](=O)[O-])cc1` [PNPC, p-nitrophenyl caprylate], for which, in data set [3], the Km is 214 µM and the Vmax came out at 802 μmole/min/mg protein.
The matching figures for `CCCCCCCCCCCCCCCC(=O)Oc1ccc([N+](=O)[O-])cc1` [PNPP, p-nitrophenyl palmitate]: 183 µM and 112 μmole/min/mg protein.
